This is an account of results in PMC10611374, “Characterization of the Hemolytic Activity of Mastoparan Family Peptides from Wasp Venoms” (Toxins, 2023).

The term EC50 denotes the midpoint of the concentration-response curve.

Experiment [1] concerns human red blood cells (HRBCs). Put plainly: Hemolytic assay on human red blood cells. Type of experiment: cell-based. The settings on record: for HRBC Hemolysis (hemolysis rate at 320 μg/mL) / EC50: human red blood cells 5% (v/v) in PBS, 37 °C 1 h, OD 540 nm, 1% Triton X-100 = 100%; for HRBC Hemolysis (hemolysis rate at 320 μg/mL): peptide 320 μg/mL (highest dose), PBS = 0%, mean of three independent experiments; for EC50: peptide 10-320 μg/mL twofold dilutions, four-parameter logistic fit of mean of three independent experiments, '-' = hemolytic activity too low to calculate the EC50, read-out: HRBC EC50 (hemolytic activity). As for the experimental part: (§1) Fresh human red blood cells were obtained from healthy donors and collected in a sterile blood collecting vessel covered with sodium citrate (1:9) as the anticoagulating agent. Rat red blood cells were collected from the abdominal aorta in sterile blood-collecting vessels coated with sodium citrate (1:4) after the SD rats were anaesthetized with isoflurane. Then, the cells were washed three times with phosphate-buffered saline via centrifugation (1000× g, 4 °C, 5 min) and prepared in a sterile 96-well polypropylene plate to achieve a final concentration of 5% (v/v). Twofold dilutions of the peptides were prepared in PBS to 100 μL and mixed with an equal volume of HRBCs/RRBCs suspension to final peptide concentrations ranging from 10 to 320 μg/mL. After coincubation at 37 °C for 1 h, the plate was centrifuged (2000× g, 4 °C, 20 min), and 100 μL of supernatant was taken for optical density measurements at 540 nm using a microtiter plate reader (SpectraMax 190). The HRBCs/RRBCs were assayed with PBS (blank) or 1% Triton X-100 (positive control) to represent 0% and 100% hemolysis, respectively. The percent hemolysis was calculated according to the following equation: Hemolysis Rate (%) = 100% × (Amastoparans − Ablank)/(ATriton X-100 − Ablank). Three independent experiments were performed, and the mean hemolysis rate at each dose was used to calculate the EC50 in Sigmaplot software.
(§2) Statistical analysis was performed with GraphPad Prism software (version 5.0, San Diego, CA, USA). A two-tailed Student’s t-test was used to calculate the statistical probability in this study. Differences in the data were considered to be statistically significant when the p value was equal to or less than 0.05. The curve of hemolysis induced by wasp mastoparans was generated in SigmaPlot 12.5 software, and the EC50 was calculated according to the equation (Four Parameter Logistic Curve): y = min + (max − min)/(1 + (x/EC50)^−Hillslope). The heat map of hemolytic activity of mastoparan peptide was analysed in R software which is based on the value of log2(EC50).

Experiment [2] relates to rat red blood cells (RRBCs). Put plainly: Hemolytic assay on rat red blood cells. It counts as cell-based, SD rats. The settings on record: for RRBC Hemolysis (hemolysis rate at 320 μg/mL) / EC50: rat red blood cells 5% (v/v) in PBS, 37 °C 1 h, OD 540 nm, 1% Triton X-100 = 100%; for RRBC Hemolysis (hemolysis rate at 320 μg/mL): peptide 320 μg/mL (highest dose), PBS = 0%, mean of three independent experiments; for EC50: peptide 10-320 μg/mL twofold dilutions, four-parameter logistic fit of mean of three independent experiments, '-' = hemolytic activity too low to calculate the EC50, read-out: RRBC EC50 (hemolytic activity). As for the experimental part:
as §1, §2

For the next experiment, the system named is E. coli. The settings on record: reported antibacterial activity; reference per peptide in Table 3; cited from earlier work.
The next experiment concerns S. aureus. The settings on record: reported antibacterial activity; reference per peptide in Table 3; cited from earlier work.
The test system of experiment [3] is Escherichia coli and Staphylococcus aureus/Bacillus subtilis. Details: method as in Table 3 refs 12, 13, 18-30. The settings on record: both on Escherichia coli and Staphylococcus aureus/Bacillus subtilis; reported values, ref Table 3 refs 12, 13, 18-30; cited from earlier work.
The next experiment relates to B. subtilis. The settings on record: reported antibacterial activity; reference per peptide in Table 3; cited from earlier work.

Ends that are not written are not given here.

On to “INWKGIAAMKKLL-NH2 [Mastoparan-like peptide 12b]”, for which, in experiment [1], the “HRBC Hemolysis (hemolysis rate at 320 μg/mL)” value (from here on “HRBC Hemolysis”) is reported as 0% and the EC50 is not below 400 µM. Moreover, in experiment [2], the “RRBC Hemolysis (hemolysis rate at 320 μg/mL)” value (shortened to “RRBC Hemolysis”) worked out at 0% and the concentration for a half-maximal effect (EC50) was more than 400 µM. Besides, in the experiment with E. coli, the “MIC E. coli” value is 10 µM. For the same substance, the “MIC S. aureus” value in the experiment on S. aureus was 2.5 µM. For the same substance, the “MIC (antibacterial activity, summary)” value in experiment [3] was not above 10 µM.
For INWKKIAEIGKQVLSAL-NH2 [Dominulin B], in experiment [1], the “HRBC Hemolysis” value is recorded as 8% and the 50% effective concentration (EC50) is not below 400 µM. Also, in experiment [2], the “RRBC Hemolysis” value is given as 0% and the EC50 was more than 400 µM. In addition, the “MIC E. coli” value in the experiment with E. coli was 1 µM. For the same substance, the “MIC B. subtilis” value in the experiment on B. subtilis is 4 µM. Besides, in experiment [3], the “MIC (antibacterial activity, summary)” value is not above 10 µM.
On to INWKKIAEVGGKILSSL-NH2 [Dominulin A], for which, in experiment [1], the “HRBC Hemolysis” value was determined as 4% and the concentration for a half-maximal effect (EC50) is not below 400 µM. In experiment [2], the “RRBC Hemolysis” value came to 0% and the EC50 was more than 400 µM. Moreover, the “MIC E. coli” value in the experiment on E. coli was 1 µM. For the same substance, the “MIC B. subtilis” value in the experiment with B. subtilis is 4 µM. In experiment [3], the “MIC (antibacterial activity, summary)” value is not above 10 µM.
Turning to KDLHTVVSAILQAL-NH2 [OdVP3a], in experiment [1], the “HRBC Hemolysis” value came out at 24% and the EC50 is more than 400 µM. For the same substance, in experiment [2], the “RRBC Hemolysis” value is 27% and the EC50 was more than 400 µM. In addition, in the experiment on E. coli, the “MIC E. coli” value is more than 200 µM. For the same substance, the “MIC S. aureus” value in the experiment with S. aureus was more than 200 µM. For the same substance, in the experiment on B. subtilis, the “MIC B. subtilis” value is 10 µM.
For LKLLGIVKKVLGAI-NH2 [EMP-EM2], in experiment [1], the “HRBC Hemolysis” value is recorded as 8% and the EC50 is more than 400 µM. In addition, in experiment [2], the “RRBC Hemolysis” value came out at 2% and the concentration for a half-maximal effect (EC50) is more than 400 µM. Also, in the experiment on E. coli, the “MIC E. coli” value is 3 µM. Besides, in the experiment with S. aureus, the “MIC S. aureus” value was 17 µM. Also, in the experiment on B. subtilis, the “MIC B. subtilis” value is 68 µM.
As to LKLMGIVKKVLGAL-NH2 [EMP-EM1], in experiment [1], the “HRBC Hemolysis” value was 21% and the EC50 was more than 400 µM. In addition, in experiment [2], the “RRBC Hemolysis” value is recorded as 7% and the EC50 was more than 400 µM. The “MIC E. coli” value with E. coli was 7 µM. Besides, the “MIC S. aureus” value in the experiment on S. aureus was 34 µM. Besides, in the experiment with B. subtilis, the “MIC B. subtilis” value is 68 µM.
In the case of LNLKGIFKKVASLLT-OH [Eumenitin], in experiment [1], the “HRBC Hemolysis” value was determined as 6% and the half-maximal effective concentration (EC50) was more than 400 µM. Besides, in experiment [1] (mutants relative to Protopolybia-MPIII), the “hemolytic activity on HRBCs, result in words” value is given as “almost no hemolytic activity”. In experiment [2], the “hemolytic activity on RRBCs, result in words” value was “almost no hemolytic activity”; the “RRBC Hemolysis” value turned out to be 4%; the half-maximal effective concentration (EC50) is more than 400 µM. Moreover, the “MIC E. coli” value in the experiment on E. coli was 6 µM. For the same substance, the “MIC S. aureus” value with S. aureus was 6 µM. In addition, in the experiment on B. subtilis, the “MIC B. subtilis” value is more than 60 µM.
